Experimental data as given in US8106111B2, “Antimicrobial effect of cycloaliphatic diol antimicrobial agents in coating compositions” (Eastman Chemical Company, priority 2009, dated 2012).

Experiments:
[1] = test system: challenge organisms (SRB isolate, B. subtilis, A. niger, C. albicans, P. aeruginosa/C. albicans); test: Latex dispersion challenge test, summary over the challenge organisms; format: cell-based; conditions: acrylic latex dispersion, additive alone; challenge organisms other than SRB
Procedure: A test of the antimicrobial efficacy of 1,4-CHDM was performed in a latex dispersion. Test procedures were generally conducted according to those of ASTM D2574-06: Standard Test Method for Resistance of Emulsion Latexes in the Container to Attack by Microorganisms.
An antimicrobial agent-free, acrylic latex dispersion with pH of 7.2, viscosity of 200 cps, and solids content of 49.8% was used as the substrate for microbial challenge testing.
Aliquots of the latex dispersion were distributed in sterile plastic tubes. The volume of latex added was adjusted such that the volume of additives plus the volume of latex would equal 25 mL to produce latex test samples.
The concentration of the additives was adjusted to allow for a final volume of 28 mL per tube after addition of the latex stock cultures discussed in Example 1. All tubes were mixed for 10 minutes on a mechanical shaker set to 75 shakes per minute, and then left stationary at ambient temperature for a minimum of 48 hours.
The bacteria (sulfate-reducing bacteria isolate, Bacillus subtilis, and Pseudomonas aeruginosa), yeast (Candida albicans), and fungi (Aspergillus niger) in Table 6 were used as challenge organisms for testing the antimicrobial efficacy of the test latex samples. Each organism was isolated from previous naturally contaminated samples of paint, latex, or adhesive.
(§1) Bacterial cultures were grown at 35° C.±2° C. for a minimum of 96 hours in liquid media. SRB was grown in a thioglycolate broth. All other bacteria and C. albicans were grown in a Trypticase Soy broth with 1% dextrose. C. albicans cultures were grown at 22° C.±2° C. for a minimum of 96 hours. A. niger was grown on the Sabouraud Dextrose Agar and in the Trypticase Soy broth with 1% dextrose at 22° C. for 7 to 14 days or until full sporulation (in the case of the agar culture) was achieved. Spores from the plate culture of A. niger were dislodged by rubbing the growth gently with a sterile inoculating loop or removing it with a sterile glass impinger. The spores were added into the broth culture, and then the mixture was filtered through sterile nonabsorbent cotton and adjusted to a spore level of 1.0×10^8 using a hemocytometer.
Challenge organisms were initially acclimated to the latex without antimicrobial additives by adding 10% by volume of individual broth culture to latex to yield final concentrations of 10^6-10^7 cfu/mL for each bacterial culture to produce latex stock cultures. The A. niger and C. albicans cultures (or suspension) were first poured through nonabsorbent sterile gauze to remove aggregates then centrifuged. The solids were re-suspended to the desired concentration in latex by estimating the concentration using a hemocytometer. The P. aeruginosa and C. albicans isolates were originally found as a mixed culture in a contaminated product. A mixed latex stock culture containing P. aeruginosa and C. albicans was prepared by adding a portion of the contaminated product to the latex without antimicrobial additives. The latex stock culture samples were incubated at 35° C.±2° C. for bacteria and at 22° C.±2° C. for A. niger and C. albicans. To determine challenge organism concentration, samples of the latex stock cultures were dilution-plated, or for SRB, evaluated using the BACTI-BOTTLE method, as described below.
To the latex test samples, 3 mL of each latex stock culture (diluted as necessary) was added to produce a theoretical 1.0×10^5 to 1.0×10^6 cfu/mL total concentration to yield inoculated latex samples. […]

[2] = test system: challenge organisms (E. coli, Aeromonas sp., SRB isolate, B. subtilis, P. vulgaris, A. niger, C. albicans); test: Paint challenge test, summary over the challenge organisms; format: cell-based; conditions: additive alone at 0.5-5%, all seven challenge organisms
Procedure: A test of the antimicrobial efficacy of 1,4-CHDM was performed in a paint. Test procedures were generally performed according to those of ASTM D2574-06: Standard Test Method for Resistance of Emulsion Paints in the Container to Attack by Microorganisms.
The paint used for testing was a commercial water-based, interior latex flat wall paint purchased from Wal-Mart. The trade name for the paint was Quik Hide. The color was Off White 26905. A five gallon (18.9 L) container was purchased. The VOC (volatile organic compound) content was listed as <100 g/L (0.8 lbs/gal).
Aliquots of uninoculated paint were distributed in sterile plastic tubes. The volume of paint added was adjusted such that the volume of additives plus the volume of paint would equal 25 mL. […] The percentages shown in Table 2 are weight percentages.
The concentration of the additives in the paint was adjusted to allow for a final volume of 28 mL per tube after addition of inoculum. All tubes were mixed for 10 minutes on a mechanical shaker set to 75 shakes per minute, and then left stationary at ambient temperature for a minimum of 48 hours.
The bacteria (first five in list), yeast (C. albicans) and fungi (A. niger) in Table 3 were used as challenge organisms for testing the antimicrobial efficacy of the additives contained in the test paint samples. Each organism was isolated from previous naturally contaminated samples of paint, latex, or adhesive. The concentration of each organism (colony-forming unit/gram (cfu/g)) in the test paint samples added as inoculum is also given in Table 3.
as §1, with “Agar (SDA)” for “Agar”
Challenge organisms were initially acclimated to the paint without additives by adding 10% by volume of individual broth culture to the paint to yield final concentrations of 10^6-10^7 cfu/mL for each bacterial culture to produce paint stock cultures. The A. niger and C. albicans cultures (or suspension) were first poured through nonabsorbent sterile gauze to remove aggregates, then centrifuged. […]

[3] = Solubility in aqueous growth media; format: physicochemical
Procedure: Stock solutions were prepared for each isomer in the corresponding growth media at a concentration of 5% w/v (1,4-CHDM) or 2.25% w/v (1,1-CHDM). Serial dilutions were prepared with a dilution ratio of 1:1.3333 such that one log range was covered with nine dilutions.
Final results have been summarized below in Table 9.

SMILES	efficacy against challenge organisms in latex [1]	killing of challenge organisms in paint [2]	solubility [3]
O=c1[nH]sc2ccccc12 [BIT, benzisothiazolinone]	highly efficacious	–	–
CC(O)CO (stereo not shown) [PG, propylene glycol]	some ability to inhibit and kill the challenge organisms	little benefit and no observable dose response	–
OCC1CCCC(CO)C1 (stereo not shown) [1,3-CHDM]	–	little benefit and no observable dose response	–
OCC1(CO)CCCCC1 [1,1-CHDM, 1,1-cyclohexanedimethanol]	–	–	2.25 % (w/v)
Cn1sccc1=O [MIT, methylisothiazolinone]	highly efficacious	–	–
OCC1CCC(CO)CC1 (stereo not shown) [1,4-CHDM, 1,4-cyclohexanedimethanol]	significant or complete killing of each challenge organism except SRB	significant or complete killing of each challenge organism	–
CC1(C)C(O)C(C)(C)C1O (stereo not shown) [TMCD, 2,2,4,4-tetramethyl-1,3-cyclobutanediol]	–	killed all challenge organisms at the highest level tested	–
CCCCNC(=O)OCC#CI [IPBC, 3-iodo-2-propanyl-n-butylcarbamate]	not found to be efficacious	–	–
